Data set [1] addresses Transient receptor potential cation channel subfamily A member 1 (Homo sapiens, UniProt O75762). Put plainly: Antagonist activity at human TRPA1 expressed in HEK293-TREx cells assessed as intracellular level after 48 of 72 hrs by Fluo-4 NW staining-based fluorescence analysis. The data set is classed as cell-based.
For data set [2], the target named is Cytochrome P450 2C19 (Homo sapiens, UniProt P33261). Put plainly: Inhibition of CYP2C19 in human liver microsomes by LC-MS/MS/competitive screening assay. Format: ADME.
Data set [3] is described as follows: Thermodynamic solubility of the compound in buffer at pH 7.4 by HPLC/UV detection. Format: physicochemical. Particulars: read-out: Therm_solubility.
The nature of data set [4]: Apparent permeability across apical to basolateral side in human Caco2 cells at 10 uM at pH 7.4 by Transwell assay. The data set is classed as ADME, cell-based. Particulars: Caco-2, pH 7.4.
The target in data set [5] is T1, Cytochrome P450 1A2 (Homo sapiens, UniProt P05177).
T1 sequence (P05177 whole entry): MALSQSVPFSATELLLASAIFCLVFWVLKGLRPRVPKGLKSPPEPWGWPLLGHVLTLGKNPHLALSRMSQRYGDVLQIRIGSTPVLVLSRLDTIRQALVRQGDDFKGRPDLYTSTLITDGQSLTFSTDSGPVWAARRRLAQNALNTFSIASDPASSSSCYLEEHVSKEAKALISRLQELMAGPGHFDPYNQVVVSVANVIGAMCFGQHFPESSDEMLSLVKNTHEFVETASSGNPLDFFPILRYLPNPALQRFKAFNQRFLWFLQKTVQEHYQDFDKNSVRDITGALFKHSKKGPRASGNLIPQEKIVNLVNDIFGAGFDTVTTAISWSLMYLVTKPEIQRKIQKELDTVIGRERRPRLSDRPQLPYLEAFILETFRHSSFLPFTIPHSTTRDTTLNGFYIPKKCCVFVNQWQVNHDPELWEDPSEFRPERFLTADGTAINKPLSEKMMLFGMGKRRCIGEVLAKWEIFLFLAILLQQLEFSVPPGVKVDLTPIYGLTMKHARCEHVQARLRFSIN
As to the kind of experiment: Time dependent inhibition of CYP1A2 in human liver microsomes assessed as shift at 10 uM. The data set is classed as ADME. Particulars: pooled result: one value given for 4 cell lines, strains, targets or settings. (In general: Liver microsomes are a subcellular fraction often used to study metabolism.)

The target in data set [6] is Cytochrome P450 2D6 (Homo sapiens, UniProt P10635). As to the kind of experiment: Inhibition of CYP2D6 in human liver microsomes by LC-MS/MS/competitive screening assay. The data set is classed as ADME.
Data set [7] in a line: Intrinsic clearance in human liver microsomes at 1 uM in presence of NADPH. The data set is classed as ADME. To be noted: read-out: CLH.
Data set [8] concerns the target Transient receptor potential cation channel subfamily A member 1 (Rattus norvegicus, UniProt Q6RI86). Put plainly: Antagonist activity at rat TRPA1 expressed in HEK293-TREx cells assessed as intracellular level after 48 of 72 hrs by Fluo-4 NW staining-based fluorescence analysis. Format: cell-based.
Data set [9] has as its target Cytochrome P450 3A4 (Homo sapiens, UniProt P08684). As to the kind of experiment: Inhibition of CYP3A4 in human liver microsomes by LC-MS/MS/competitive screening assay. Format: ADME.
The target in data set [10] is T1, Cytochrome P450 1A2. Put plainly: Inhibition of CYP1A2 in human liver microsomes by LC-MS/MS/competitive screening assay. Format: ADME.
Data set [11] has as its target Cytochrome P450 2C9 (Homo sapiens, UniProt P11712). Put plainly: Inhibition of CYP2C9 in human liver microsomes by LC-MS/MS/competitive screening assay. Format: ADME.
Data set [12] in a line: Chemical stability in buffer solution assessed as compound remaining at pH 1 at 70 degC after 24 hrs by HPLC/UV detection. Format: physicochemical. To be noted: read-out: Stability.
Data set [13] concerns the target Transient receptor potential cation channel subfamily V member 1 (Homo sapiens, UniProt Q8NER1). As to the kind of experiment: Inhibition of human TRPV1.
Data set [14] is described as follows: Chemical stability in buffer solution assessed as compound remaining at pH 14 at 70 degC after 24 hrs by HPLC/UV detection. To be noted: read-out: Stability. The data set is classed as physicochemical.
The nature of data set [15]: Chemical stability in buffer solution assessed as compound remaining at pH 7 at 70 degC after 24 hrs by HPLC/UV detection. Format: physicochemical. To be noted: read-out: Stability.

This note sets out measurements from ChEMBL document CHEMBL3297644, “Discovery of a 4-aryloxy-1H-pyrrolo[3,2-c]pyridine and a 1-aryloxyisoquinoline series of TRPA1 antagonists” (Bioorg Med Chem Lett, 2014).

Each structure is given as a SMILES string. Converted amounts (≈) assume the structure as drawn.

Sequence of Transient receptor potential cation channel subfamily A member 1 (Homo sapiens, UniProt O75762) (O75762 whole entry): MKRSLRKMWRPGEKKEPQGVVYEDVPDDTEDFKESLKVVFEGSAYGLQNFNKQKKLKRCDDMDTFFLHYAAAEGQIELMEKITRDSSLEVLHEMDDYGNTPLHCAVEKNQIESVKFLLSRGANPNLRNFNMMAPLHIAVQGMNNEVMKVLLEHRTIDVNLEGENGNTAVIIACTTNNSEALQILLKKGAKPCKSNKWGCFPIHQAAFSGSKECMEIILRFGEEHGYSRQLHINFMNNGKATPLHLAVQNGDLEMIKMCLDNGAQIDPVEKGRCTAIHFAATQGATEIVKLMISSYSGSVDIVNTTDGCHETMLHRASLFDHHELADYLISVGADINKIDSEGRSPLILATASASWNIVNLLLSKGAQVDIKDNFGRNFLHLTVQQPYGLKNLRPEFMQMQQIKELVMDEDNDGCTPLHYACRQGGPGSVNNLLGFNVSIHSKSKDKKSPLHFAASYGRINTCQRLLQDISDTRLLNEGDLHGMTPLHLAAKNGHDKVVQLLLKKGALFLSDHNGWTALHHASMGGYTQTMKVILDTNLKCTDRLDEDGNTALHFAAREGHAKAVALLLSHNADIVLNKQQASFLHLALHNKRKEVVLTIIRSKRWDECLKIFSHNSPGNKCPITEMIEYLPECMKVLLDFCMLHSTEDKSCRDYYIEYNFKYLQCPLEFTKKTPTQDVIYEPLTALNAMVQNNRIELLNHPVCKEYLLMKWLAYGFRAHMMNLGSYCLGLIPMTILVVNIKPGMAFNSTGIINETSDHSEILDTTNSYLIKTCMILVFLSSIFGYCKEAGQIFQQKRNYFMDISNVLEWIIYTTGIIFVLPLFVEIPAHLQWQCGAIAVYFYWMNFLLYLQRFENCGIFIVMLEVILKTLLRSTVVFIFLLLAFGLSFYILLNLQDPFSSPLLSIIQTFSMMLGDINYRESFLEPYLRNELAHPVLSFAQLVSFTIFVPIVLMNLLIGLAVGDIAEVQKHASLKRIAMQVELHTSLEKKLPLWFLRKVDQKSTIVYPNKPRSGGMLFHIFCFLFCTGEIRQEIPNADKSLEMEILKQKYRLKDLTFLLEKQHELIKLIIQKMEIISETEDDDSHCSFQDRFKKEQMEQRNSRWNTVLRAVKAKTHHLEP
Sequence of Cytochrome P450 2C19 (P33261 whole entry): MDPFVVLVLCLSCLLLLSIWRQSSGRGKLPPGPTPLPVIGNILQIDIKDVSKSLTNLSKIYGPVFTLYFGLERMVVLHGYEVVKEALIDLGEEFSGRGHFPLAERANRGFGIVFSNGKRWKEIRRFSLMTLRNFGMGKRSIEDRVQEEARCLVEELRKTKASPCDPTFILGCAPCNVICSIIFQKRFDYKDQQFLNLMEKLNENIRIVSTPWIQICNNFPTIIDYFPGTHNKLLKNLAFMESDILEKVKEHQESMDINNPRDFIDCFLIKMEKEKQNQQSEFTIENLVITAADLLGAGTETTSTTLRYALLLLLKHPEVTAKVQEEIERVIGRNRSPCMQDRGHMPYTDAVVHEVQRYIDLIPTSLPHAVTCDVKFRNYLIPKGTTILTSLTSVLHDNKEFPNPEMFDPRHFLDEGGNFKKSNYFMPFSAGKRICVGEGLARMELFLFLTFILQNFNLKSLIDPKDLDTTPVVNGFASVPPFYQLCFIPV
Sequence of Transient receptor potential cation channel subfamily A member 1 (Rattus norvegicus, UniProt Q6RI86) (Q6RI86 whole entry): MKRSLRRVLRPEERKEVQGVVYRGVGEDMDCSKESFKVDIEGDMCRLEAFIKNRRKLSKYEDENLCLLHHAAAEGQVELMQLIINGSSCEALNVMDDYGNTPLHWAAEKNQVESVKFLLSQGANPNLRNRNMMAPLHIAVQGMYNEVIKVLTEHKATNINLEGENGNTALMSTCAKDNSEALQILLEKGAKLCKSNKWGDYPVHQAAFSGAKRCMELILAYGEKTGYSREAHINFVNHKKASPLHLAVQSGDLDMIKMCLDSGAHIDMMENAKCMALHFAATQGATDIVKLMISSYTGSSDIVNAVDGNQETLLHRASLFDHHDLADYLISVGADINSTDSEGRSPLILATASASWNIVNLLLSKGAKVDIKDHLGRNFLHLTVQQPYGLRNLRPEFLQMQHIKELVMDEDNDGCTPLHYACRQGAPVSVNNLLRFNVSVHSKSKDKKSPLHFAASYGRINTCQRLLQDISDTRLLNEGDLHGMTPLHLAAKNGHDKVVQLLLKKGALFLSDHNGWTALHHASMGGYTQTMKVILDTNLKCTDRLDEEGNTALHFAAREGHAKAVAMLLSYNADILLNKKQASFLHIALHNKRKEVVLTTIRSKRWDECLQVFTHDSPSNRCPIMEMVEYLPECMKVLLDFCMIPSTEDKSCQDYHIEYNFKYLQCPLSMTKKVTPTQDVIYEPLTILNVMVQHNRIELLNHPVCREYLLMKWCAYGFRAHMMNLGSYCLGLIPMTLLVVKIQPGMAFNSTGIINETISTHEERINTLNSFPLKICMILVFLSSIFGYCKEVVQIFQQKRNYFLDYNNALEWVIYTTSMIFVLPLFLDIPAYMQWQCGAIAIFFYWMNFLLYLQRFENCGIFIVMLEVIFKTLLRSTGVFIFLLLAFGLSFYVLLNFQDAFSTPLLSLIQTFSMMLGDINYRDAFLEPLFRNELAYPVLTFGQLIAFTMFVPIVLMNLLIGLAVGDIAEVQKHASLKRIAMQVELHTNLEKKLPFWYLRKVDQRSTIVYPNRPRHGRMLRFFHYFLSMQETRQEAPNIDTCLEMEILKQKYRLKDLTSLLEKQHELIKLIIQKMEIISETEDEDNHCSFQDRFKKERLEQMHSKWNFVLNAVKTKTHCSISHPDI
Sequence of Cytochrome P450 2D6 (P10635 whole entry): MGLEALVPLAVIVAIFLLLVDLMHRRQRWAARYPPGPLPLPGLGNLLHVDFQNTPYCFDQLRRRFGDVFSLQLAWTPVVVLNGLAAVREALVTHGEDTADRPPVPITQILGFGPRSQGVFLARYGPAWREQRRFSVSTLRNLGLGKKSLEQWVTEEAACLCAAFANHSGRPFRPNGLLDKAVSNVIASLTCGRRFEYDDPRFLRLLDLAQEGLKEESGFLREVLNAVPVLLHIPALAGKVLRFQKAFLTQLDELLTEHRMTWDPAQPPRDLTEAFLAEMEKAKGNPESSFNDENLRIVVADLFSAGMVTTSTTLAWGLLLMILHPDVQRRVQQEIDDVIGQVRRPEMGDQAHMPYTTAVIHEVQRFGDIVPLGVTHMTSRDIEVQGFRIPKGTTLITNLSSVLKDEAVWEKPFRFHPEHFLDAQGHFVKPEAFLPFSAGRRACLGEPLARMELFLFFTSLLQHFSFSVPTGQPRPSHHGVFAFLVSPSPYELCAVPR
Sequence of Cytochrome P450 3A4 (P08684 whole entry): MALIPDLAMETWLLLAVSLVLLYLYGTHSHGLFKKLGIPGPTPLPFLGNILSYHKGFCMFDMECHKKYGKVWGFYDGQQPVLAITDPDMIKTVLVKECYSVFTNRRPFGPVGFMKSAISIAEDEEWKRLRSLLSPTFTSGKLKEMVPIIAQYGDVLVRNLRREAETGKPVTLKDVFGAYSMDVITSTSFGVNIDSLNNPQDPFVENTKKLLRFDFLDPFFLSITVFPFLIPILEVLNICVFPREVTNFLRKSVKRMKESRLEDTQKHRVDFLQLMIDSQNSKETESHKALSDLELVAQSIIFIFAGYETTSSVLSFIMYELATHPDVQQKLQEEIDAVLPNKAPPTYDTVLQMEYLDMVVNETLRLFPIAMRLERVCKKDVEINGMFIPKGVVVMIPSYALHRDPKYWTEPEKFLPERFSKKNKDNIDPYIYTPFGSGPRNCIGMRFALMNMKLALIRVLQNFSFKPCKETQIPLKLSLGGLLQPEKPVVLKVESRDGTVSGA
Sequence of Cytochrome P450 2C9 (P11712 whole entry): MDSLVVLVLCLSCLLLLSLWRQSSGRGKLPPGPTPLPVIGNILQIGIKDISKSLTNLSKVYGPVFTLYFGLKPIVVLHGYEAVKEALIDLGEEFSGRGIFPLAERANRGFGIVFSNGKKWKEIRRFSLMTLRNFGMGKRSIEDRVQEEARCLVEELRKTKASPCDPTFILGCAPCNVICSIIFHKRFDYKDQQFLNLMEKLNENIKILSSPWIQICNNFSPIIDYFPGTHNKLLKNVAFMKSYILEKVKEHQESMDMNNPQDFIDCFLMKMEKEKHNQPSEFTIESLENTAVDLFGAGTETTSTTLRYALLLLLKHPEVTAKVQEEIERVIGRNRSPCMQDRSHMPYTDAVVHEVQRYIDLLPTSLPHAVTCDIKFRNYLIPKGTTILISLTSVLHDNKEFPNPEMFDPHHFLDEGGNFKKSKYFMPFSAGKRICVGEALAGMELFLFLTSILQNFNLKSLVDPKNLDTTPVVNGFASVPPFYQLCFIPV
Sequence of Transient receptor potential cation channel subfamily V member 1 (Q8NER1 whole entry): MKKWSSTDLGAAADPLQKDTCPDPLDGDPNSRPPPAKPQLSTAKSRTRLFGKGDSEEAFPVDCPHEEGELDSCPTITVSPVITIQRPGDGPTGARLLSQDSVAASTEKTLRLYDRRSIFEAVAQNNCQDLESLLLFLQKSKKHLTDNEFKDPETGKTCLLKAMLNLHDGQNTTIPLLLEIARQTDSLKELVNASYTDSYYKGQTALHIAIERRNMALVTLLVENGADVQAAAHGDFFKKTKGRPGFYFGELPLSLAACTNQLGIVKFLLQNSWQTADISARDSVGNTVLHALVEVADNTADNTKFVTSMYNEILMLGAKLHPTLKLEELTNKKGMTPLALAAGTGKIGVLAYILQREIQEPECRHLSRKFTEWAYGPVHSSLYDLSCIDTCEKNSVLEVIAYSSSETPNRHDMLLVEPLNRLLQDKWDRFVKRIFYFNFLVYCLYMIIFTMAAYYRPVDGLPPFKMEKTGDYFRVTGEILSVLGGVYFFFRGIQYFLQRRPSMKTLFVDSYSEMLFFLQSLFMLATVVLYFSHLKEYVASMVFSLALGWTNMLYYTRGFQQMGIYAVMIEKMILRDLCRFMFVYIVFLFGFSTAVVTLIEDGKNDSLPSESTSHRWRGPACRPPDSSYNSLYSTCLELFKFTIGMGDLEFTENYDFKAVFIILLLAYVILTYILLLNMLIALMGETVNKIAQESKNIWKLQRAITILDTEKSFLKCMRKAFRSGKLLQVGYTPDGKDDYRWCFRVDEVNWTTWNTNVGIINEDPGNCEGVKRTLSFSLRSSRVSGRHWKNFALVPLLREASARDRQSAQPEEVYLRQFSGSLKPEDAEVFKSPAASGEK

The term IC50 denotes the point on the concentration scale where inhibition reaches its midpoint. In the case of `Fc1ccc(Oc2ccnc3[nH]ccc23)c(F)c1`, in [1], the IC50 is greater than 32000 nM.
Same read-out and setting: then `Fc1ccc(Oc2nccc3occc23)c(F)c1`, with 2200 nM.
By Papp A→B is commonly meant how fast a substance crosses the layer from the apical side. Take `Fc1ccc(Oc2nccc3[nH]ccc23)cc1`: the IC50 is greater than 20000 nM in data set [2]; greater than 20000 nM in data set [6]; 1200 nM in data set [8]; greater than 20000 nM in data set [9]; greater than 20000 nM in data set [10]; 310 nM in data set [1]. In [11], this compound had an IC50 greater than 20000 nM. For the same compound, the solubility thermodynamic in data set [3] worked out at 24 µM (≈ 5.48 µg/mL). Moreover, the Papp A→B at 10 µM in [4] came out at 12 ×10⁻⁶ cm/s. In addition, the TDI in [5] is on record as 31%. Moreover, the microsomal CLint at 1 µM in data set [7] was found to be 74 µL/min/mg.
In the case of `COc1cc2ncnc(Oc3ccc(F)cc3F)c2cc1OC`, in data set [1], the IC50 came out at 1200 nM.
Same read-out and setting: next, `COc1ccc2c(Oc3ccc(F)cc3F)ncnc2c1`: 3000 nM; `COc1ccc2ncnc(Oc3ccc(F)cc3F)c2c1`: greater than 32000 nM.
With `Fc1ccc(Oc2ncnc3ccccc23)c(F)c1`, the IC50 in data set [1] is greater than 32000 nM.
On the same count and under the same terms, next, `COc1cc2ccnc(Oc3ccc(F)cc3F)c2cc1OC`: 630 nM.
The same measure, in the same setting: then `COc1ccc2c(Oc3ccc(F)cc3F)nccc2c1`, with 1300 nM.
Consider `Fc1ccc(Oc2nccc3ccccc23)c(F)c1`, for which the 50% inhibitory concentration (IC50) in [1] is 3100 nM.
On to `COc1cc2ccnc(Oc3ccc(F)cc3)c2cc1OC`, for which the IC50 in data set [2] worked out at 1900 nM; in [6] it was 1900 nM; in data set [8], 1800 nM; in data set [9] it was 1900 nM; in [10], 1900 nM; in data set [1], 330 nM. In data set [11], this compound registered an IC50 of 1900 nM. Also, the solubility thermodynamic in data set [3] is 8 µM (≈ 2.39 µg/mL). Moreover, in data set [4], the Papp A→B at 10 µM amounted to 6 ×10⁻⁶ cm/s. In addition, in data set [7], the microsomal CLint at 1 µM is 110 µL/min/mg.
Regarding `Fc1cc(F)c(Oc2ncnc3[nH]ccc23)c(F)c1`, the IC50 in [1] was greater than 32000 nM.
Still for that read-out and setting: then `Fc1ccc(Oc2ncnc3[nH]ccc23)c(F)c1`, with 710 nM.
For the compound `Fc1ccc(Oc2ncnc3[nH]ccc23)cc1`, the remaining at 24 h in data set [12] turned out to be 10%; in data set [14], 100%; in [15], 100%. Further, the IC50 in [2] is greater than 20000 nM; in [13] it was greater than 10000 nM; in data set [6] it was greater than 20000 nM; in data set [8], 3000 nM; in [9], greater than 20000 nM; in [10], greater than 20000 nM. The values for the IC50 in [1] and in data set [11] were 410 nM and greater than 20000 nM, respectively. The solubility thermodynamic in [3] amounted to 33 µM (≈ 7.56 µg/mL). Moreover, the Papp A→B at 10 µM in [4] was 18 ×10⁻⁶ cm/s. Further, the TDI in data set [5] came to 44%. Besides, the microsomal CLint at 1 µM in data set [7] worked out at 24 µL/min/mg.
`c1ccc(Oc2ncnc3[nH]ccc23)cc1`: the IC50 in [1] amounted to 3200 nM.
On to `Cc1ccc(Oc2ncnc3[nH]ccc23)cc1`, for which, in data set [1], the IC50 was greater than 32000 nM.
Still for that read-out and setting: next, `Cc1ccccc1Oc1ncnc2[nH]ccc12`: greater than 32000 nM.
Consider `Cc1ccc(Oc2ncnc3[nH]ccc23)c(C)c1`, for which the IC50 in [1] is greater than 32000 nM.
On to `Clc1ccc(Oc2ncnc3[nH]ccc23)cc1`, for which the IC50 in data set [1] was greater than 32000 nM.
The same measure, in the same setting: next, `N#Cc1ccc(Oc2ncnc3[nH]ccc23)cc1`: greater than 32000 nM; `O=[N+]([O-])c1ccc(Oc2ncnc3[nH]ccc23)cc1`: greater than 32000 nM; `COc1ccc(Oc2ncnc3[nH]ccc23)cc1`: greater than 32000 nM.
The same measure, in the same setting: then `Fc1cccc(Oc2ncnc3[nH]ccc23)c1F`, with 2700 nM; and `Fc1ccc(Oc2ncnc3[nH]ccc23)cc1F`, with 3000 nM.
On the same count and under the same terms, then `Fc1ccccc1Oc1ncnc2[nH]ccc12`, with greater than 32000 nM; and `Fc1cccc(Oc2ncnc3[nH]ccc23)c1`, with greater than 32000 nM.
As to `Fc1ccc(Nc2ncnc3[nH]ccc23)cc1`, the concentration for half-maximal inhibition (IC50) in data set [1] is greater than 32000 nM.
Take `Fc1ccc(Cc2ncnc3[nH]ccc23)cc1`: the IC50 in data set [1] is greater than 32000 nM.
Same read-out and setting: next, `Cc1cc2c(Oc3ccc(F)cc3F)ncnc2[nH]1`: 1200 nM; `Cc1[nH]c2ncnc(Oc3ccc(F)cc3F)c2c1C`: 2000 nM.
Turning to `Cc1c[nH]c2ncnc(Oc3ccc(F)cc3F)c12`, in data set [1], the IC50 is 650 nM.
Same read-out and setting: next, `CCc1c[nH]c2ncnc(Oc3ccc(F)cc3F)c12`: 1600 nM.
On the same count and under the same terms, next, `Fc1ccc(Oc2ncnc3[nH]cc(Cl)c23)c(F)c1`: 630 nM; `Fc1ccc(Oc2ncnc3[nH]cc(I)c23)c(F)c1`: 2500 nM; `Fc1ccc(Oc2ccncn2)c(F)c1`: greater than 32000 nM.
On the same count and under the same terms, next, `Cn1ccc2c(Oc3ccc(F)cc3F)ncnc21`: greater than 32000 nM; `Fc1ccc(Oc2ncnc3cc[nH]c23)c(F)c1`: greater than 32000 nM; `Fc1ccc(Oc2ncnc3ccoc23)c(F)c1`: greater than 32000 nM.
As for `Fc1ccc(Oc2ncnc3occc23)c(F)c1`, in data set [1], the IC50 was greater than 32000 nM.
The same measure, in the same setting: then `Fc1ccc(Oc2cccc3[nH]ccc23)c(F)c1`, with 1100 nM.
As for `Fc1ccc(Oc2nccc3[nH]ccc23)c(F)c1`, the remaining at 24 h in data set [12], in data set [14] and in data set [15] was 100% in each case. In addition, the IC50 is greater than 20000 nM in [2]; greater than 10000 nM in [13]; greater than 20000 nM in data set [6]; 1700 nM in [8]; greater than 20000 nM in data set [9]; greater than 20000 nM in data set [10]. In addition, the IC50 in data set [1] was 320 nM; in [11], greater than 20000 nM. Besides, the solubility thermodynamic in data set [3] is 77 µM (≈ 19 µg/mL). In addition, the Papp A→B at 10 µM in data set [4] is 33 ×10⁻⁶ cm/s. In addition, the TDI in data set [5] is given as 42%. Further, the microsomal CLint at 1 µM in [7] amounted to 45 µL/min/mg.
Turning to `Fc1ccc(Oc2nccc3ccoc23)c(F)c1`, the IC50 in data set [1] stood at 1100 nM.
